Tests used:
[1] = molecular target: T1, human CYP11B1 (Homo sapiens, UniProt P15538); experiment: Inhibition of hCYP11B1 in transfected V79 cells; type: cell-based; conditions: hamster V79 cells expressing human CYP11B1; substrate 11-deoxycortisol 200 nM
T1 construct: expressed in transfected cells
T1 sequence (P15538 25-503): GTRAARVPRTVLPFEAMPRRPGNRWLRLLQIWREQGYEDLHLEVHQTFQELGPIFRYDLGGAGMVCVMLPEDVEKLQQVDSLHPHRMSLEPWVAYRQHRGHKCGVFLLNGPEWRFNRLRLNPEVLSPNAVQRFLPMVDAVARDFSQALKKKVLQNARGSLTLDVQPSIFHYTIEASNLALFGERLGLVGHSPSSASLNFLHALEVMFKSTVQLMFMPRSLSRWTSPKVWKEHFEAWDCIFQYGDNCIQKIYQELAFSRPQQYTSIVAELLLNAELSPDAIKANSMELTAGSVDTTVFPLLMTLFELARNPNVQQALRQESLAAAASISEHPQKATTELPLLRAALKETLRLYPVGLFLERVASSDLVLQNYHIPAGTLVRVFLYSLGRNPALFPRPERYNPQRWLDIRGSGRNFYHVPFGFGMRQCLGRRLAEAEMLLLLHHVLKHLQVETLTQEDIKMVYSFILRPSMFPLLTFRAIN
Summary of the method: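 Reactions started with 200 nM 11-deoxycortisol, ran for 30 min and were stopped with ethyl acetate, after a 2 h compound preincubation. The host was stably transfected V79 hamster cells carrying human CYP11B1 plus rat P450 reductase. Percent inhibition, from LC-MS/MS or HPLC (260 nm) quantitation of substrate and product, gave the IC50.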

[2] = molecular target: T2, human CYP11B2 (Homo sapiens, UniProt P19099); experiment: Inhibition of hCYP11B2 in transfected V79 cells; type: cell-based; conditions: hamster V79 cells expressing human CYP11B2; substrate 11-deoxycorticosterone 200 nM
T2 construct: expressed in transfected cells
T2 sequence (P19099 25-503): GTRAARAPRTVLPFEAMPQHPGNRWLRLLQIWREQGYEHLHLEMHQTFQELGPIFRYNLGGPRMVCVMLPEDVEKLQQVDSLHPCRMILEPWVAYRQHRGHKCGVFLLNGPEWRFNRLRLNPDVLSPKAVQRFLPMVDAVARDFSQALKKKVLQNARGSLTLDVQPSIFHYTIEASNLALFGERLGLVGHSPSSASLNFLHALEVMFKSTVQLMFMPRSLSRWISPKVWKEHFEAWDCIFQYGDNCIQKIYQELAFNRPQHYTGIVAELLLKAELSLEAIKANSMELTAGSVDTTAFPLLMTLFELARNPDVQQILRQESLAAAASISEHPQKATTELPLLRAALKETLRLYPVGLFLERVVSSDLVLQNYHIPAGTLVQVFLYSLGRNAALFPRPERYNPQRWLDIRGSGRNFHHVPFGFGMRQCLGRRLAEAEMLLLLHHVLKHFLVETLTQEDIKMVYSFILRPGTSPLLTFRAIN
Summary of the method: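 The substrate (200 nM, 30 min) was added after a 2 hour compound pre-incubation in lentivirus-transduced V79 cells stably expressing human CYP11B2 plus rat NADPH-P450 reductase.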

IC50 [1]	IC50 [2]	SMILES
137 nM	2.9 nM	N#Cc1ccc(-c2cncc3c2OCCN3C(=O)C2CN(Cc3ccc(F)cc3)C2)cc1 [O79, 4-(4-(1-(4-Fluorobenzyl)azetidine-3-carbonyl)-3,4-dihydro-2H-pyrido[4,3-b][1,4]oxazin-8-yl)benzonitrile]
185 nM	1 nM	N#Cc1ccc(-c2cncc3c2OCCN3C(=O)C2CN(Cc3cccc(C#N)c3)C2)cc1 [O80, 3-((3-(8-(4-Cyanophenyl)-3,4-dihydro-2H-pyrido[4,3-b][1,4]oxazine-4-carbonyl)azetidin-1-yl)methyl)benzonitrile]
72 nM	0.6 nM	N#Cc1ccc(CN2CC(C(=O)N3CCOc4c(-c5ccc(C#N)cc5)cncc43)C2)cc1 [O81, 4-(4-(1-(4-Cyanobenzyl)azetidine-3-carbonyl)-3,4-dihydro-2H-pyrido[4,3-b][1,4]oxazin-8-yl)benzonitrile]
69 nM	1.4 nM	COc1cccc(CN2CC(C(=O)N3CCOc4c(-c5ccc(C#N)cc5)cncc43)C2)c1 [O82, 4-(4-(1-(3-Methoxybenzyl)azetidine-3-carbonyl)-3,4-dihydro-2H-pyrido[4,3-b][1,4]oxazin-8-yl)benzonitrile]
112 nM	1 nM	COc1ccc(CN2CC(C(=O)N3CCOc4c(-c5ccc(C#N)cc5)cncc43)C2)cc1 [O83, 4-(4-(1-(4-Methoxybenzyl)azetidine-3-carbonyl)-3,4-dihydro-2H-pyrido[4,3-b][1,4]oxazin-8-yl)benzonitrile]
53 nM	1.6 nM	N#Cc1ccc(-c2cncc3c2OCCN3C(=O)C2CN(c3cccc(F)c3)C2)cc1 [O84, 4-(4-(1-(3-Fluorophenyl)azetidine-3-carbonyl)-3,4-dihydro-2H-pyrido[4,3-b][1,4]oxazin-8-yl)benzonitrile]
64 nM	4.6 nM	N#Cc1ccc(-c2cncc3c2OCCN3C(=O)C2CN(c3ccc(F)cc3)C2)cc1 [O85, 4-(4-(1-(4-Fluorophenyl)azetidine-3-carbonyl)-3,4-dihydro-2H-pyrido[4,3-b][1,4]oxazin-8-yl)benzonitrile]
72 nM	0.8 nM	N#Cc1ccc(-c2cncc3c2OCCN3C(=O)C2CN(c3cccc(C#N)c3)C2)cc1 [O86, 3-(3-(8-(4-Cyanophenyl)-3,4-dihydro-2H-pyrido[4,3-b][1,4]oxazine-4-carbonyl)azetidin-1-yl)benzonitrile]
55 nM	2.5 nM	N#Cc1ccc(-c2cncc3c2OCCN3C(=O)C2CN(c3ccc(C#N)cc3)C2)cc1 [O87, 4-(3-(8-(4-Cyanophenyl)-3,4-dihydro-2H-pyrido[4,3-b][1,4]oxazine-4-carbonyl)azetidin-1-yl)benzonitrile]
485 nM	6 nM	O=C(C1CN(Cc2cccc(F)c2)C1)N1CCOc2c(-c3ccc4ncsc4c3)cncc21 [O88, (8-(Benzo[d]thiazol-6-yl)-2,3-dihydro-4H-pyrido[4,3-b][1,4]oxazin-4-yl)(1-(3-fluorobenzyl)azetidin-3-yl)methanone]
2550 nM	15.6 nM	O=C1Cc2cc(-c3cncc4c3OCCN4C(=O)C3CN(Cc4cccc(F)c4)C3)ccc2N1 [O89, 5-(4-(1-(3-Fluorobenzyl)azetidine-3-carbonyl)-3,4-dihydro-2H-pyrido[4,3-b][1,4]oxazin-8-yl)indolin-2-one]
3260 nM	48.8 nM	O=C(C1CN(Cc2cccc(F)c2)C1)N1CCOc2c(-c3ccc4nccn4c3)cncc21 [O90, (1-(3-Fluorobenzyl)azetidin-3-yl)(8-(imidazo[1,2-a]pyridin-6-yl)-2,3-dihydro-4H-pyrido[4,3-b][1,4]oxazin-4-yl)methanone]
4160 nM	92 nM	O=C(C1CN(Cc2cccc(F)c2)C1)N1CCOc2c(-c3cc4ccc(Cl)cc4[nH]3)cncc21 [O91, (8-(6-Chloro-1H-indol-2-yl)-2,3-dihydro-4H-pyrido[4,3-b][1,4]oxazin-4-yl)(1-(3-fluorobenzyl)azetidin-3-yl)methanone]
4440 nM	28.4 nM	N#Cc1ccc2cc(-c3cncc4c3OCCN4C(=O)C3CN(Cc4cccc(F)c4)C3)[nH]c2c1 [O92, 2-(4-(1-(3-Fluorobenzyl)azetidine-3-carbonyl)-3,4-dihydro-2H-pyrido[4,3-b][1,4]oxazin-8-yl)-1H-indole-6-carbonitrile]
4170 nM	90 nM	O=C(C1CN(Cc2cccc(F)c2)C1)N1CCOc2c(-c3cc4ccc(F)cc4[nH]3)cncc21 [O93, (8-(6-Fluoro-1H-indol-2-yl)-2,3-dihydro-4H-pyrido[4,3-b][1,4]oxazin-4-yl)(1-(3-fluorobenzyl)azetidin-3-yl)methanone]
381 nM	4.7 nM	N#Cc1ccc2[nH]c(-c3cncc4c3OCCN4C(=O)C3CN(Cc4cccc(F)c4)C3)cc2c1 [O94, 2-(4-(1-(3-Fluorobenzyl)azetidine-3-carbonyl)-3,4-dihydro-2H-pyrido[4,3-b][1,4]oxazin-8-yl)-1H-indole-5-carbonitrile]
4590 nM	41 nM	O=C(C1CN(Cc2cccc(F)c2)C1)N1CCOc2c(-c3cc4cc(Cl)ccc4o3)cncc21 [O95, (8-(5-Chlorobenzofuran-2-yl)-2,3-dihydro-4H-pyrido[4,3-b][1,4]oxazin-4-yl)(1-(3-fluorobenzyl)azetidin-3-yl)methanone]
1340 nM	5.2 nM	N#Cc1ccc2oc(-c3cncc4c3OCCN4C(=O)C3CN(Cc4cccc(F)c4)C3)cc2c1 [O96, 2-(4-(1-(3-Fluorobenzyl)azetidine-3-carbonyl)-3,4-dihydro-2H-pyrido[4,3-b][1,4]oxazin-8-yl)benzofuran-5-carbonitrile]
219 nM	35 nM	N#CN1CC=C(c2cncc3c2OCCN3C(=O)C2CN(Cc3cccc(F)c3)C2)CC1 [O97, 4-(4-(1-(3-Fluorobenzyl)azetidine-3-carbonyl)-3,4-dihydro-2H-pyrido[4,3-b][1,4]oxazin-8-yl)-3,6-dihydropyridine-1 (2H)-carbonitrile]
677 nM	46 nM	N#CN1CCN(c2cncc3c2OCCN3C(=O)C2CN(Cc3cccc(F)c3)C2)CC1 [O98, 4-(4-(1-(3-Fluorobenzyl)azetidine-3-carbonyl)-3,4-dihydro-2H-pyrido[4,3-b][1,4]oxazin-8-yl)piperazine-1-carbonitrile]
652 nM	39 nM	N#CN1CCN(c2cncc3c2OCCN3C(=O)C2CN(Cc3cccc(F)c3)C2)C(=O)C1 [O99, 4-(4-(1-(3-Fluorobenzyl)azetidine-3-carbonyl)-3,4-dihydro-2H-pyrido[4,3-b][1,4]oxazin-8-yl)-3-oxopiperazine-1-carbonitrile]
102 nM	0.3 nM	COc1cccc(C2=NOC(S(=O)(=O)N3CCOc4c(-c5ccc(C#N)cc5)cncc43)C2)c1 (stereo not shown) [O100, 4-(4-((3-(3-Methoxyphenyl)-4,5-dihydroisoxazol-5-yl)sulfonyl)-3,4-dihydro-2H-pyrido[4,3-b][1,4]oxazin-8-yl)benzonitrile]
57 nM	0.4 nM	N#Cc1ccc(-c2cncc3c2OCCN3S(=O)(=O)C2CC(c3cccc(C#N)c3)=NO2)cc1 (stereo not shown) [O101, 3-(5-((8-(4-Cyanophenyl)-2,3-dihydro-4H-pyrido[4,3-b][1,4]oxazin-4-yl)sulfonyl)-4,5-dihydroisoxazol-3-yl)benzonitrile]
62 nM	0.3 nM	N#Cc1ccc(-c2cncc3c2OCCN3S(=O)(=O)C2CC(c3ccccc3)=NO2)cc1 (stereo not shown) [O102, 4-(4-((3-Phenyl-4,5-dihydroisoxazol-5-yl)sulfonyl)-3,4-dihydro-2H-pyrido[4,3-b][1,4]oxazin-8-yl)benzonitrile]
79 nM	0.5 nM	N#Cc1ccc(-c2cncc3c2OCCN3S(=O)(=O)C2CC(Cc3ccccc3)=NO2)cc1 (stereo not shown) [O103, 4-(4-((3-benzyl-4,5-dihydroisoxazol-5-yl)sulfonyl)-3,4-dihydro-2H-pyrido[4,3-b][1,4]oxazin-8-yl)benzonitrile]
468 nM	4.1 nM	N#Cc1ccc(-c2cncc3c2OCCN3C(=O)[C@H]2CCN(Cc3cccc(F)c3)C2)cc1 [O104, (S)-4-(4-(1-(3-Fluorobenzyl)pyrrolidine-3-carbonyl)-3,4-dihydro-2H-pyrido[4,3-b][1,4]oxazin-8-yl)benzonitrile]

Source: patent publication US20260092074A1, “Annelated Pyridines as Steroidogenesis Inhibitors, Preparation Method and Use Thereof” (Guangzhou Vinnocent Pharmaceutical Limited, priority 2022, published 2026)
